Measured values: paper PMC2635027 (The Journal of Biological Chemistry, 2009)

What was measured:
[1] = test system: BHK21-tTA/anti-CHC cell line; conditions: absence of tetracycline for 2 days; cited from earlier work
[2] = test system: BHK21-tTA/anti-CHC cell line; assay type: cell-based, hamster; conditions: +tet control cells; peptides 10 μM, Tf 10 μg/ml; 37 °C; confocal microscopy
BHK21 cells = assay type: cell-based, hamster; conditions: BHK21 cells at 4 °C; 10 μM; confocal microscopy

Substance | inhibition of transferrin internalization [1] [%] | vesicular (endocytic) uptake, in words [2] | intracellular fluorescently labeled vesicles, in words (BHK21 cells)
transferrin: transferrin conjugated to Alexa Fluor 633, marker for clathrin-dependent endocytosis | 90 | internalized at high rates | 
YARAARQARA [PTD4, TAMRA-PTD4 (YARAARQARA)] |  | presence of PTD4-containing vesicles | not observed
